Laboratory results from EP0068408A1 (priority 1981, dated 1983).
In brackets after ≈: the same amount, converted by molar mass. Read-outs that look alike come from different tables or passages of the source.

Experiments:
[1] = Acute toxicity in mice (LD50); assay type: in vivo; conditions: ddY male mice, suspended in 5% Arabic gum solution, observed for 7 days; for LD50 at 168 h: mouse, in vivo
Method: Experimental Example 7: Acute Toxicity in Mice
Each compound of the invention was suspended in 5% Arabic gum solution and given orally (p.o.) or intraperitoneally (i.p.) to groups of ten ddY male mice weighed from 24 to 26 g at the dosage volume of 10 ml/kg. […] LD50 was determined according to the method of Wilcoxon and Litchfield.

[2] = tested on: coxsackie virus B1; set-up: species or system mice; conditions: mouse, in vivo, po
[3] = tested on: parainfluenza virus type 3; set-up: species or system mice; conditions: mouse, in vivo, po
[4] = tested on: influenza virus B/GL; assay: animal or person; assay type: in vivo, mice; conditions: for survival rates of the treated groups as compared with the control: result in words, Table 7; for responders at 30 mg/kg / responders at 100 mg/kg / responders at 300 mg/kg: unidentified influenza virus, in Mus musculus, po, 360 h, read-out: Survival rate
[5] = tested on: influenza virus A/WSN; assay: animal or person; assay type: in vivo, mice; conditions: in Mus musculus, 360 h, read-out: Survival rate
[6] = tested on: Influenza B; assay: microbe, parasite or virus in culture; assay type: cell-based
[7] = tested on: ECHO; assay: microbe, parasite or virus in culture; assay type: cell-based
[8] = tested on: Rhino; assay: microbe, parasite or virus in culture; assay type: cell-based
[9] = tested on: Influenza A0; assay: microbe, parasite or virus in culture; assay type: cell-based; conditions: virus A = Influenza A0, MDCK, Vero and HEL cells, 2 or 3 days
[10] = tested on: influenza A0 virus; assay: animal or person; assay type: in vivo, mice; conditions: Mus musculus, 360 h, twice a day for 14 days, survivors at 15th day, read-out: Survival rate; for responders at 300 mg/kg: oral; for responders at 100 mg/kg: ip, intraperitoneal
[11] = tested on: Parainfluenza Type 3; assay: microbe, parasite or virus in culture; assay type: cell-based; conditions: virus E = Parainfluenza Type 3
[12] = tested on: Coxsackie Type B5; assay: microbe, parasite or virus in culture; assay type: cell-based; conditions: virus G = Coxsackie Type B5
[13] = tested on: Influenza A1; assay: microbe, parasite or virus in culture; assay type: cell-based
[14] = ip, i.p., read-out: LD50 value, Intraperitoneal administration
[15] = po, p.o., read-out: LD50 value, Oral administration

Compound: CCCCCCCCOC(=O)c1cc(S(N)(=O)=O)c(Cl)cc1Cl [Compound 37]
- LD50 at 168 h [1, 14]: > 1000 mg/kg
- LD50 at 168 h [1, 15]: > 3000 mg/kg
- Survival rate ([2]; 300 mg/kg): 50%
- Survival rate ([2]; 1000 mg/kg): 80%
- Survival rate ([3]; 30 mg/kg): 40%
- Survival rate ([3]; 100 mg/kg): 70%
- survival rates of the treated groups as compared with the control [4]: extremely excellent activity
- responders at 30 mg/kg [4]: 50%
- responders at 100 mg/kg [4]: 80%
- responders at 10 mg/kg [5]: 50%
- responders at 30 mg/kg ([5]; ip): 60%
- responders at 30 mg/kg ([5]; po): 50%
- responders at 100 mg/kg ([5]; po): 70%

Compound: CC(C)OC(=O)c1ccc(Br)c(S(N)(=O)=O)c1 [Compound 29]
- LD50 value, Intraperitoneal administration ([1]; i.p.): >1,000 mg/kg
- LD50 value, Oral administration ([1]; p.o.): >3,000 mg/kg
- responders at 100 mg/kg [4]: 30%
- responders at 300 mg/kg [4]: 40%

Compound: CCCCOC(=O)c1cc(S(N)(=O)=O)c(Cl)cc1Cl [Compound 35]
- LD50 at 168 h [1, 14]: > 1000 mg/kg
- LD50 at 168 h [1, 15]: > 3000 mg/kg
- Survival rate ([2]; 300 mg/kg): 40%
- Survival rate ([2]; 1000 mg/kg): 80%
- Survival rate ([3]; 30 mg/kg): 30%
- Survival rate ([3]; 100 mg/kg): 60%
- survival rates of the treated groups as compared with the control [4]: extremely excellent activity
- responders at 30 mg/kg [4]: 40%
- responders at 100 mg/kg [4]: 60%
- responders at 30 mg/kg ([5]; po): 40%
- responders at 100 mg/kg ([5]; po): 60%

Compound: COC(=O)c1cc(S(N)(=O)=O)c(Cl)cc1Cl [Compound 31]
- LD50 at 168 h [1, 14]: > 1000 mg/kg
- LD50 at 168 h [1, 15]: > 3000 mg/kg
- responders at 100 mg/kg [4]: 40%
- responders at 300 mg/kg [4]: 50%
- responders at 100 mg/kg ([5]; po): 40%
- responders at 300 mg/kg ([5]; po): 50%

Compound: N=C(N)NNS(=O)(=O)c1cc(C(=O)O)c(Cl)cc1Cl [Compound 22]
- LD50 at 168 h [1, 14]: > 1000 mg/kg
- LD50 at 168 h [1, 15]: > 3000 mg/kg
- MIC [6]: 300 mg/L (≈ 917 µM)
- MIC [7]: 100 mg/L (≈ 306 µM)
- MIC [8]: 300 mg/L (≈ 917 µM)
- MIC [9]: 100 mg/L (≈ 306 µM)
- responders at 300 mg/kg [10]: 40%
- responders at 100 mg/kg [10]: 40%
- MIC [11]: 300 mg/L (≈ 917 µM)
- MIC [12]: 300 mg/L (≈ 917 µM)
- MIC [13]: 300 mg/L (≈ 917 µM)

Compound: CCCOC(=O)c1cc(S(N)(=O)=O)c(Cl)cc1Cl [Compound 33]
- LD50 at 168 h [1, 14]: > 1000 mg/kg
- LD50 at 168 h [1, 15]: > 3000 mg/kg
- responders at 100 mg/kg [4]: 40%
- responders at 300 mg/kg [4]: 50%
- responders at 30 mg/kg ([5]; ip): 40%
- responders at 100 mg/kg ([5]; ip): 50%
- responders at 100 mg/kg ([5]; po): 50%
- responders at 300 mg/kg ([5]; po): 60%

Compound: NS(=O)(=O)c1cc(C(=O)O)c(F)cc1Cl [Compound 16]
- LD50 at 168 h [1, 14]: > 1000 mg/kg
- LD50 at 168 h [1, 15]: > 3000 mg/kg
- MIC [6]: 300 mg/L (≈ 1180 µM)
- MIC [7]: 300 mg/L (≈ 1180 µM)
- MIC [8]: 300 mg/L (≈ 1180 µM)
- MIC [9]: 30 mg/L (≈ 118 µM)
- responders at 300 mg/kg [10]: 50%
- responders at 100 mg/kg [10]: 50%
- MIC [11]: 300 mg/L (≈ 1180 µM)
- MIC [12]: 30 mg/L (≈ 118 µM)
- MIC [13]: 300 mg/L (≈ 1180 µM)

Compound: O=C(O)c1ccc(Cl)c(S(=O)(=O)NNc2ccc(Cl)nn2)c1 [Compound 10]
- LD50 at 168 h [1, 14]: > 1000 mg/kg
- LD50 at 168 h [1, 15]: > 3000 mg/kg
- MIC [6]: 300 mg/L (≈ 826 µM)
- MIC [7]: 100 mg/L (≈ 275 µM)
- MIC [8]: 300 mg/L (≈ 826 µM)
- MIC [9]: 30 mg/L (≈ 82.6 µM)
- responders at 300 mg/kg [10]: 40%
- responders at 100 mg/kg [10]: 40%
- MIC [11]: 300 mg/L (≈ 826 µM)
- MIC [12]: 300 mg/L (≈ 826 µM)
- MIC [13]: 300 mg/L (≈ 826 µM)

Compound: NS(=O)(=O)c1cc(Br)cc(C(=O)O)c1 [Compound 26]
- LD50 at 168 h [1, 14]: > 1000 mg/kg
- LD50 at 168 h [1, 15]: > 3000 mg/kg
- MIC [6]: 300 mg/L (≈ 1070 µM)
- MIC [7]: 100 mg/L (≈ 357 µM)
- MIC [8]: 300 mg/L (≈ 1070 µM)
- MIC [9]: 30 mg/L (≈ 107 µM)
- responders at 300 mg/kg [10]: 50%
- responders at 100 mg/kg [10]: 40%
- MIC [11]: 300 mg/L (≈ 1070 µM)
- MIC [12]: 300 mg/L (≈ 1070 µM)
- MIC [13]: 300 mg/L (≈ 1070 µM)

Compound: CN(CCO)S(=O)(=O)c1cc(C(=O)O)ccc1Cl [Compound 6]
- LD50 at 168 h [1, 14]: > 1000 mg/kg
- LD50 at 168 h [1, 15]: > 3000 mg/kg
- MIC [6]: 300 mg/L (≈ 1020 µM)
- MIC [7]: 100 mg/L (≈ 340 µM)
- MIC [8]: 300 mg/L (≈ 1020 µM)
- MIC [9]: 30 mg/L (≈ 102 µM)
- responders at 300 mg/kg [10]: 40%
- responders at 100 mg/kg [10]: 60%
- MIC [11]: 300 mg/L (≈ 1020 µM)
- MIC [12]: 300 mg/L (≈ 1020 µM)
- MIC [13]: 300 mg/L (≈ 1020 µM)

Compound: CCCCOC(=O)c1ccc(Br)c(S(N)(=O)=O)c1 [Compound 30]
- LD50 value, Intraperitoneal administration ([1]; i.p.): >1,000 mg/kg
- LD50 value, Oral administration ([1]; p.o.): >3,000 mg/kg
- Survival rate ([2]; 300 mg/kg): 40%
- Survival rate ([2]; 1000 mg/kg): 70%
- Survival rate ([3]; 30 mg/kg): 40%
- Survival rate ([3]; 100 mg/kg): 60%
- survival rates of the treated groups as compared with the control [4]: extremely excellent activity
- responders at 30 mg/kg [4]: 60%
- responders at 300 mg/kg [4]: 70%

Compound: NS(=O)(=O)c1cc(C(=O)O)cc([N+](=O)[O-])c1Cl [Compound 15]
- LD50 at 168 h [1, 14]: > 1000 mg/kg
- LD50 at 168 h [1, 15]: > 3000 mg/kg
- MIC [6]: 300 mg/L (≈ 1070 µM)
- MIC [7]: 100 mg/L (≈ 356 µM)
- MIC [8]: 300 mg/L (≈ 1070 µM)
- MIC [9]: 30 mg/L (≈ 107 µM)
- responders at 300 mg/kg [10]: 50%
- responders at 100 mg/kg [10]: 50%
- MIC [11]: 300 mg/L (≈ 1070 µM)
- MIC [12]: 300 mg/L (≈ 1070 µM)
- MIC [13]: 300 mg/L (≈ 1070 µM)

Compound: COC(=O)c1cc(S(N)(=O)=O)c(Cl)cc1F [Compound 41]
- LD50 at 168 h [1, 14]: > 1000 mg/kg
- LD50 at 168 h [1, 15]: > 3000 mg/kg
- responders at 100 mg/kg [4]: 30%
- responders at 300 mg/kg [4]: 50%
- responders at 30 mg/kg ([5]; ip): 30%
- responders at 100 mg/kg ([5]; ip): 50%
